Results as given in article PMC9570233, “Improving Both the Thermostability and Catalytic Efficiency of Phospholipase D from Moritella sp. JT01 through Disulfide Bond Engineering Strategy” (International Journal of Molecular Sciences, 2022).
Numbering of substitutions follows the chain as printed.

Assays:
[1] = biological target: T1, MsPLD (Moritella sp. JT01, UniProt A0A137SLD1); experiment: coupled choline oxidase/peroxidase colorimetric assay ([…] nm), non-linear regression; format: biochemical; settings: 35 °C, pH 8.0, PC 1.0-3.0 mM, 5 min; hydrolysis; free enzyme
T1 construct: gene AKG98_3441; tag removal not mentioned
T1 sequence (A0A137SLD1 29-578): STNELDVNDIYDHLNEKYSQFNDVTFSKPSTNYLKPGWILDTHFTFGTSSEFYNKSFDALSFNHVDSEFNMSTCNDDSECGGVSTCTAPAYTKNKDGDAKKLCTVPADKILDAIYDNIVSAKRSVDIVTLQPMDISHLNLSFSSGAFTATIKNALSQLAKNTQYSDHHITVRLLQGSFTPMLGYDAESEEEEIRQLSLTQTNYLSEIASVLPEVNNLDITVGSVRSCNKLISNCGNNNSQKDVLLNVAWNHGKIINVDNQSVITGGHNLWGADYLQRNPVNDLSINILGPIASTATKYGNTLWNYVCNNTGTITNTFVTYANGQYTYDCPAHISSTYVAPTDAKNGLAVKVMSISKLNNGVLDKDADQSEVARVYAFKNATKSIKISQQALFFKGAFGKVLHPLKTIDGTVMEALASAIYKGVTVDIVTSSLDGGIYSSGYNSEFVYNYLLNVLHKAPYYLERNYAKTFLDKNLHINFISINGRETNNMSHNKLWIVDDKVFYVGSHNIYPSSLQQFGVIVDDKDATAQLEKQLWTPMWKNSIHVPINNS

[2] = biological target: T2, MsPLD (Moritella sp. JT01, UniProt A0A137SLD1, S169C/T227C/D246C/A349C); experiment: as above; format: biochemical; settings: 35 °C, pH 8.0, PC 1.0-3.0 mM, 5 min; hydrolysis; free enzyme
T2 construct: gene AKG98_3441; tag removal not mentioned
T2 sequence (A0A137SLD1 29-578 S169C/T227C/D246C/A349C): T1 sequence (A0A137SLD1 29-578) with S141C, T199C, D218C, A321C

L-α-phosphatidylcholine
Km [1]: 3.44 ± 0.81 mM | Km [2]: 2.71 ± 0.89 mM
